The results in this text go back to US20260125389A1, “MEMBRANE-ASSOCIATED TYROSINE AND THREONINE KINASE INHIBITOR AND USE THEREOF” (HAINAN SIMCERE ZAIMING PHARMACEUTICAL CO., LTD., priority 2022, published 2026).

One assay concerns HCC1569 cells. Kind of assay: Inhibition of tumor cell proliferation (CTG, HCC1569). The assay is classed as cell-based. The following applies: Homo sapiens, 168 h, 7 days incubation, CTG readout, read-out: IC50 of compounds for inhibition of HCC1569 cell growth. The method, then:
Experimental principle: The compound was incubated with tumor cells for 7 days, and ATP in viable cells was quantified using the CTG kit from Promega to evaluate the effect of the compound on tumor cell proliferation.
Experimental method: The cultured cells were resuspended after being rinsed with PBS (for adherent cells) and digested with 0.25% Trypsin-EDTA, followed by cell counting to determine cell density and viability. 3000 HCC1569 cells/well were diluted with RPMI Medium 1640 containing 10% FBS, added to a 96-well plate (90 μL/well), and cultured in an incubator at 37° C. with 5% CO2 for 24 h. The test compound was diluted to different concentrations in dimethyl sulfoxide (DMSO) and added to a 96-well plate. Thus, the final concentration of the compound in the reaction system started at 25 μM and was subjected to a 4-fold serial dilution, with the final DMSO concentration maintained at 0.25%. The compound and cells were further incubated at 37° C. with 5% CO2 for 7 days. 50 μL/well of CTG was then added to measure the inhibitory effect of the compound on tumor cell growth, and the inhibition rate and half-maximal inhibitory concentration (IC50) were calculated.
The % compound inhibition was calculated and fitted using XLfit software to obtain the IC50 of the compound.
Blank wells and DMSO wells were set up. The blank well contained 100 μL of RPMI Medium 1640 with 10% FBS, where the inhibition rate of the compound on tumor cell growth was considered 100%. The DMSO well contained 0.25% DMSO added to the cell well, where the inhibition rate of the compound on tumor cell growth was considered 0%.

A further assay addresses T1, PKMYT1 (Homo sapiens, UniProt Q99640).
T1 sequence (Q99640 1-499): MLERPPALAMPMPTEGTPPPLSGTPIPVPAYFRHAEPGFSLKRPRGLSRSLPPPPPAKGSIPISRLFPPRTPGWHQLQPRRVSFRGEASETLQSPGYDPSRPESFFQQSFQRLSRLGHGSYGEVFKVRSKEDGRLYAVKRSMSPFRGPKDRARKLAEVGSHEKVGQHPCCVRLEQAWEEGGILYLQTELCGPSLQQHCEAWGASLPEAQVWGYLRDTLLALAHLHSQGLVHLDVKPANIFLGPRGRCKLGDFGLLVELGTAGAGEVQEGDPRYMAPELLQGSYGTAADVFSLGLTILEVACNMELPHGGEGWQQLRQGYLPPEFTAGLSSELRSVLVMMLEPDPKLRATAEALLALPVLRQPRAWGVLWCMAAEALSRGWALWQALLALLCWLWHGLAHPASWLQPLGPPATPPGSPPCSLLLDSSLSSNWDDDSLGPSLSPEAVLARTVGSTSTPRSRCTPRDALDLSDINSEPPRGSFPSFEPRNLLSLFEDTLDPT
Kind of assay: Inhibition assay for PKMYT1 enzyme activity (ADP-Glo). The class given is biochemical. The following applies: MYT1 2 ng/μL, ATP 25 μM, substrate CDK1 20 ng/μL, 40 min reaction, read-out: IC50 values of compounds for PKMYT1 inhibition activity. The method, then:
Experimental principle: After co-incubation of PKMYT1 with the compound, the substrate CDK1 was phosphorylated under the action of ATP. ADP produced by the reaction was quantified using an ADP-Glo™ assay kit from Promega to reflect the enzyme activity.
Experimental method: Using the Echo liquid handler, the test compound was diluted to different concentrations in dimethyl sulfoxide (DMSO) and transferred to a 384-well plate. Thus, the final concentration of the compound in the reaction system started at 1 μM and was subjected to a 3-fold serial dilution, with the final DMSO concentration maintained at 1%. 50 nL/well of the test compound solution was added. 3 μL/well of MYT1 diluted with Kinase Dilution Buffer was then added. […] After incubation for 30 min, the fluorescence signal values were measured using an Envision microplate reader.
The % compound inhibition was calculated and fitted using XLfit software to obtain the IC50 value of the compound. […]
Herein, the experimental well, blank well, and DMSO group refer to the fluorescence signal values recorded from the experimental group, blank group, and DMSO group, respectively.
The inhibitory activity of the compounds of the present application on PKMYT1 was determined by the above assay, and the IC50 values obtained are as shown in Table 1.
(ADP-Glo turns the ADP formed in a reaction into a luminescent signal.)

As usually defined, the IC50 is the concentration needed to halve the response being measured.

As to `Cc1ccc(O)c(C)c1-n1c(N)c2c3c(ncnc31)-c1ccccc1NC2=O` [Compound 1, 5-amino-4-(3-hydroxy-2,6-dimethylphenyl)-4,7-dihydro-6H-1,3,4,7-tetraazadibenzo[cd,f]azulen-6-one], the values for the IC50 in the assay with HCC1569 cells and on PKMYT1 were 42 nM and 8.8 nM, respectively. Consider `Cc1ccc2c(n1)CNC(=O)c1c(N)n(-c3c(C)ccc(O)c3C)c3nc(C)nc-2c13` [Compound 9, 2-amino-1-(3-hydroxy-2,6-dimethylphenyl)-7,11-dimethyl-4,5-dihydro-1,4,6,10,12-pentaazabenzo[4,5]cyclooctatetraeno[1,2,3-cd]inden-3(1H)-one], for which the IC50 in the assay with HCC1569 cells came to 210 nM.

`Cc1nc2c3c(c(N)n(-c4c(C)ccc(O)c4C)c3n1)C(=O)NCc1c-2ccnc1C#N` [Compound 45, 2-amino-1-(3-hydroxy-2,6-dimethylphenyl)-11-methyl-3-oxo-1,3,4,5-tetrahydro-1,4,7,10,12-pentaazabenzo[4,5]cyclooctatetraeno[1,2,3-cd]indene-6-carbonitrile]: the IC50 in the assay with HCC1569 cells is 194 nM. Take `Cc1nc2c3c(c(N)n(-c4c(C)ccc(O)c4C)c3n1)C(=O)NCc1nn(C)cc1-2` [Compound 8, 2-amino-1-(3-hydroxy-2,6-dimethylphenyl)-7,10-dimethyl-1,4,5,7-tetrahydro-3H-1,4,6,7,9,11-hexaazacyclopenta[4,5]cyclooctatetraeno[1,2,3-cd]inden-3-one]: the IC50 in the assay on HCC1569 cells was 768 nM. Still for that read-out and setting: the figure for `Cc1nc2c3c(c(N)n(-c4c(C)ccc(O)c4C)c3n1)C(=O)Nc1nn(C)cc1-2` [Compound 13, 2-amino-1-(3-hydroxy-2,6-dimethylphenyl)-6,9-dimethyl-4,6-dihydro-1,4,5,6,8,10-hexaazabenzo[cd]cyclopenta[f]azulen-3(1H)-one] is 27.3 nM; for `Cc1nc2c3c(c(N)n(-c4c(C)ccc(O)c4C)c3n1)C(=O)NCc1c(C#N)cccc1-2` [Compound 27, 2-amino-1-(3-hydroxy-2,6-dimethylphenyl)-11-methyl-3-oxo-1,3,4,5-tetrahydro-1,4,10,12-tetraazabenzo[4,5]cyclooctatetraeno[1,2,3-cd]indene-6-carbonitrile] it is 131 nM. Still for that read-out and setting: the figure for `Cc1nc2c3c(c(N)n(-c4c(C)ccc(O)c4C)c3n1)C(=O)Nc1nn(CC(F)(F)F)cc1-2` [Compound 14, 2-amino-1-(3-hydroxy-2,6-dimethylphenyl)-9-methyl-6-(2,2,2-trifluoroethyl)-4,6-dihydro-1,4,5,6,8,10-hexaazabenzo[cd]cyclopenta[f]azulen-3(1H)-one] is 254 nM; for `Cc1nc2c3c(c(N)n(-c4c(C)ccc(O)c4C)c3n1)C(=O)NCc1ccccc1-2` [Compound 3, 2-amino-1-(3-hydroxy-2,6-dimethylphenyl)-11-methyl-4,5-dihydro-1,4,10,12-tetraazabenzo[4,5]cyclooctatetraeno[1,2,3-cd]inden-3(1H)-one] it is 293 nM.

Take `Cc1nc2c3c(c(N)n(-c4c(C)ccc(O)c4C)c3n1)C(=O)Nc1c-2cnn1C` [Compound 12, 5-amino-4-(3-hydroxy-2,6-dimethylphenyl)-2,8-dimethyl-7,8-dihydro-1,3,4,7,8,9-hexaazabenzo[cd]cyclopenta[f]azulen-6(4H)-one]: the IC50 in the assay with HCC1569 cells amounted to 9.2 nM. On the same count and under the same terms, next, `Cc1nc2c3c(c(N)n(-c4c(C)ccc(O)c4C)c3n1)C(=O)NCc1nc(C3CC3)ccc1-2` [Compound 28, 2-amino-7-cyclopropyl-1-(3-hydroxy-2,6-dimethylphenyl)-11-methyl-4,5-dihydro-1,4,6,10,12-pentaazabenzo[4,5]cyclooctatetraeno[1,2,3-cd]inden-3(1H)-one]: 70 nM; `Cc1nc2c3c(c(N)n(-c4c(C)ccc(O)c4C)c3n1)C(=O)NCc1c-2ccc(F)c1C#N` [Compound 49, 2-amino-7-fluoro-1-(3-hydroxy-2,6-dimethylphenyl)-11-methyl-3-oxo-1,3,4,5-tetrahydro-1,4,10,12-tetraazabenzo[4,5]cyclooctatetraeno[1,2,3-cd]inden-6-carbonitrile]: 20.9 nM; `Cc1nc2c3c(c(N)n(-c4c(C)ccc(O)c4C)c3n1)C(=O)NCc1c-2ccnc1C` [Compound 36, 2-amino-1-(3-hydroxy-2,6-dimethylphenyl)-6,11-dimethyl-4,5-dihydro-1,4,7,10,12-pentaazabenzo[4,5]cyclooctatetraeno[1,2,3-cd]inden-3(1H)-one]: 63.8 nM. With `Cc1nc2c3c(c(N)n(-c4c(C)ccc(O)c4C)c3n1)C(=O)Nc1ccccc1-2` [Compound 2, 5-amino-4-(3-hydroxy-2,6-dimethylphenyl)-2-methyl-4,7-dihydro-6H-1,3,4,7-tetraazadibenzo[cd,f]azulen-6-one], the IC50 was 22 nM in the assay on HCC1569 cells and 5.7 nM at PKMYT1.
